This note sets out measurements from PMC12916490 (Molecular Psychiatry, 2025).

pKi: −log10 of the molar value. Where only a bound is given, the exact number is not on record here.

Chain of h5-HT2A (P28223 whole entry, looked up): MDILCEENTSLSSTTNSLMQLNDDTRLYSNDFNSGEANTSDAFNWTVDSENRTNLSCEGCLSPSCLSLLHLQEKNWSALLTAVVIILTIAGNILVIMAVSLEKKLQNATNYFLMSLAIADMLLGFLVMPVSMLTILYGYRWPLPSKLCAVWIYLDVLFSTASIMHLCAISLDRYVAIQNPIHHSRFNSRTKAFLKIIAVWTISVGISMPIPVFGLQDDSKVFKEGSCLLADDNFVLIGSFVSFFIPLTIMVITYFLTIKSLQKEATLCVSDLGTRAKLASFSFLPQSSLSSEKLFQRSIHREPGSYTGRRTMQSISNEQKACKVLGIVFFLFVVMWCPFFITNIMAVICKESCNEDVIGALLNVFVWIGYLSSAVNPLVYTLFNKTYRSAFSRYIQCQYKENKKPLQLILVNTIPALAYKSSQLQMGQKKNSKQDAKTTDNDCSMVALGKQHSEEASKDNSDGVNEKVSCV

The target in the first test is T1, hNET (Homo sapiens, UniProt P23975).
T1 construct: expressed in transfected cells; host or cells: HEK 293 cells (membrane preparation)
T1 sequence (P23975 whole entry): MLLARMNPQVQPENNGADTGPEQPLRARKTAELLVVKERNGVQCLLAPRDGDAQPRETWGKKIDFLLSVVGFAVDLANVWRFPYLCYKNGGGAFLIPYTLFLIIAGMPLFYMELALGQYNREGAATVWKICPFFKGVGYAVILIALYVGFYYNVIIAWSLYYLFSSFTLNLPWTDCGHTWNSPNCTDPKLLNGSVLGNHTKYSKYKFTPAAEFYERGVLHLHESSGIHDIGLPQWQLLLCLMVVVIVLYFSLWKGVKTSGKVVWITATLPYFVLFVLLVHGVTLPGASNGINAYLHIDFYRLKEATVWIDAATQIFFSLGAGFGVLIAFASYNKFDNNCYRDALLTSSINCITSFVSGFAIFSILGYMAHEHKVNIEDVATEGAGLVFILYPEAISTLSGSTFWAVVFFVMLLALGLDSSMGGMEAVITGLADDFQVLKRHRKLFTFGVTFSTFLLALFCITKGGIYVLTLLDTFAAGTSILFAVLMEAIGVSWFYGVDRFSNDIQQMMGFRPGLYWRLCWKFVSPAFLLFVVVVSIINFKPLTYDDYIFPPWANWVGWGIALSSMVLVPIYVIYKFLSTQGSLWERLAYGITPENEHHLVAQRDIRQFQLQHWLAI
Kind of test: Radioligand binding, hNET (N-methyl-[3H]nisoxetine).
Conditions: not given
Here is the method: (§1) Binding affinities at human monoamine receptors and transporters were assessed as previously reported. A detailed description of the methodology is provided in the Supplementary information.
(§2) The IC50 values from the radioligand binding assays were determined by nonlinear regression, using three independent concentration-response curves fitted to a one-site model. The Cheng-Prusoff equation was used to calculate Kᵢ values for the competing ligands. EC50 values were determined by applying nonlinear regression to concentration-response curves. Bias factors (β) were calculated based on the relative intrinsic activity approach. More detailed information can be found in the Supplementary information. Mean values for total number of HTR, change in body temperature from pre to post session (Δ°C), and total distance traveled (cm) for each drug dose were compared (p < 0.05) via Welch’s ANOVA with Dunnett’s T3 post test, comparing all doses to respective vehicle controls (0 mg/kg). Welch’s ANOVA with Dunnett’s T3 post test was also used to compare drug concentrations, but the data were compared to DOM in this case. Dose–response relationships for HTR and locomotor activities were plotted using bell-shaped curve fits, while temperature change data were plotted using four-parameter non-linear regression curve fits. The ascending phase of the HTR curve for each drug was used to determine ED50 potency values from four parameter non-linear regression fits. For combined DOM and DOAM administration, the plasma, brain tissue, and brain dialysate drug concentrations were compared using paired t-tests (p < 0.05).
(§3) 3.1 Assessment of receptor and transporter binding affinities
(§4) Membrane preparations were prepared from cells transfected with the respective target. The membrane preparations were then incubated with selective radioligands at concentrations equal to the corresponding Kd and displacement of the ligand by the drugs was measured. The difference between total binding and nonspecific binding (determined in the presence of selective competitors) was defined as specific binding of the radioligand to the target receptor. The following transfected cell lines were used for the binding assays: HEK 293 cells (h5-HT1A, h5-HT2A, h5-HT2B, h5-HT2C, and hD2 receptors, hDAT, hNET, and hSERT), Chinese hamster ovary cells (hα 1A receptor), and Chinese hamster lung cells (hα 2A receptor).
(§5) 3.1.1 Membrane preparations for receptor and transporter binding
(§6) For producing membrane preparations, transfected cells were harvested with trypsin/EDTA, washed with ice-cold phosphate buffered saline, and then pelleted by centrifugation (210 × g for 5 min at 4 °C). The pellets were frozen and stored at -80 °C until use. Frozen pellets were resuspended in 20 m L (receptor binding) or 400 m L (transporter binding) buffer (20 mM HEPES -NaOH, 10 mM EDTA, pH 7.4), and homogenized at 1,100 × g for 20 s (receptor binding) or 560 × g for 15 s (transporter binding); the homogenates were then centrifuged at 48,000 × g for 30 min at 4 °C. For receptor binding assays, the supernatants were discarded and the pellets were resuspended in 20 mL buffer (20 mM HEPES-NaOH, 0.1 mM EDTA, pH 7.4) and homogenized at 1 ,100 × g for 20 s. Centrifugation and discarding of the supernatant were repeated once, and the final pellet was then resuspended in buffer and homogenized.
(§7) 3.1.2 Serotonin 5-HT1A and 5-HT2A receptor binding
(§8) Competitive binding at the h5-HT1A and h5-HT2A receptor was determined using 0.90 nM [ 3H]8-hydroxy-2-(di-n-propylamine)tetralin ([ 3H]8-OH-DPAT; h5-HT1A receptor agonist) and 0.40 nM [3H]ketanserin (h5-HT2 receptor antagonist) as radioligands. […]
(§9) binding of the radioligands was defined as difference between total binding (binding buffer alone) and nonspecific binding determined in the presence of 10 μM pindolol (h5-HT1A receptor antagonist) or 10 μM spiperone (h 5-HT2A receptor antagonist).
The term pKi denotes −log10 of the Ki, conventionally taken in molar units. A lower pKi goes with a high Ki. `COc1ccc(OC)c(CC(C)N)c1.Cl` (stereo not drawn) [2,5-DMA, 2,5-Dimethoxyamphetamine hydrochloride] gave a negative-log Ki (pKi) of under 5.10.
Same read-out and setting: the same measure for `CCCCCc1cc(OC)c(CC(C)N)cc1OC` (stereo not drawn) [DOAM, 4-amyl-2,5-dimethoxyamphetamine]: under 5.10.
Still for that read-out and setting: in the case of `CCCCc1cc(OC)c(CC(C)N)cc1OC` (stereo not drawn) [DOBU, 4-butyl-2,5-dimethoxyamphetamine] it was under 5.10; in that of `CCc1cc(OC)c(CC(C)N)cc1OC` (stereo not drawn) [DOET, 4-ethyl-2,5-dimethoxyamphetamine], under 5.10.
Still for that read-out and setting: in the case of `COc1cc(CC(C)N)c(OC)cc1C` (stereo not drawn) [DOM, 4-methyl-2,5-dimethoxyamphetamine] it was under 5.10; in that of `CCCc1cc(OC)c(CC(C)N)cc1OC.Cl` (stereo not drawn) [DOPR, 4-propyl-2,5-dimethoxyamphetamine hydrochloride], under 5.10.

The target of a further test is T2, hα2A (Homo sapiens, UniProt P08913).
T2 construct: expressed in transfected cells; host or cells: Chinese hamster lung cells (membrane preparation)
T2 sequence (P08913 1-465): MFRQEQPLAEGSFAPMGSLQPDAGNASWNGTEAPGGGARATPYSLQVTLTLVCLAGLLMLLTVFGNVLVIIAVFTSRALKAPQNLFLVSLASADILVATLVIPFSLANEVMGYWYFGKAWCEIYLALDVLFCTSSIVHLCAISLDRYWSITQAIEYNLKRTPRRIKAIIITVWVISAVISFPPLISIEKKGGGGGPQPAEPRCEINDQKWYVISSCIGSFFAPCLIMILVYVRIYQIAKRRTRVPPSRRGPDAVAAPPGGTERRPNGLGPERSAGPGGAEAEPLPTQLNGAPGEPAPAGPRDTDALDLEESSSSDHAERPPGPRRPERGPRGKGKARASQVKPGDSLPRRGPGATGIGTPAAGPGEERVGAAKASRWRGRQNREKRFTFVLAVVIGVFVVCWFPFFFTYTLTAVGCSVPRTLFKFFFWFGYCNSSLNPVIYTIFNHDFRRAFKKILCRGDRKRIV
Kind of test: Radioligand binding, hα2A receptor ([3H]rauwolscine).
Conditions: not given
Here is the method: as §1
as §2, with “Data analysis was performed with Prism software (version 10.1.2, GraphPad Software, Boston, MA, USA). The IC50” for “The IC50”, “< 0.05). Ratios were compared using Holm-Sidak’s post hoc test following a repeated-measures one-way ANOVA (F (1.709, 6.835) = 70.80; p < 0.0001).” for “< 0.05).”
as §3, §4, §5, §6, §7
Competitive binding at the h5-HT1A and h5-HT2A receptor was determined using 0.90 nM [ 3H]8-hydroxy-2-(di-n-propylamine)tetralin ([ 3H]8-OH-DPAT; h5-HT1A receptor agonist) and 0.40 nM [3H]ketanserin (h5-HT2 receptor antagonist) as radioligands. The density and affinity of [ 3H]8-OH-DPAT […]
As to `COc1ccc(OC)c(CC(C)N)c1.Cl` (stereo not drawn) [2,5-DMA, 2,5-Dimethoxyamphetamine hydrochloride], the negative logarithm of the Ki (pKi) is 5.36.
Molecule `CCCCCc1cc(OC)c(CC(C)N)cc1OC` (stereo not drawn) [DOAM, 4-amyl-2,5-dimethoxyamphetamine] showed a negative logarithm of the Ki (pKi) of 5.64. Compared with the last molecule, the pKi is 0.28 log units higher.
`CCCCc1cc(OC)c(CC(C)N)cc1OC` (stereo not drawn) [DOBU, 4-butyl-2,5-dimethoxyamphetamine]: the pKi is 5.77.
Still for that read-out and setting: in the case of `CCc1cc(OC)c(CC(C)N)cc1OC` (stereo not drawn) [DOET, 4-ethyl-2,5-dimethoxyamphetamine] it was under 5.30; in that of `COc1cc(CC(C)N)c(OC)cc1C` (stereo not drawn) [DOM, 4-methyl-2,5-dimethoxyamphetamine], under 5.30.
On the same count and under the same terms, the same measure for `CCCc1cc(OC)c(CC(C)N)cc1OC.Cl` (stereo not drawn) [DOPR, 4-propyl-2,5-dimethoxyamphetamine hydrochloride]: 6.29.

A further test addresses h5-HT2A (Homo sapiens, UniProt P28223). Kind of test: biochemical. Details: expressed in transfected cells; host or cells: HEK 293 cells (membrane preparation). It is filed as binding.
Conditions: not given
`CCCCCc1cc(OC)c(CC(C)N)cc1OC` (stereo not drawn) [DOAM, 4-amyl-2,5-dimethoxyamphetamine] gave a negative logarithm of the Ki (pKi) of 8.46.
Regarding `CCCCc1cc(OC)c(CC(C)N)cc1OC` (stereo not drawn) [DOBU, 4-butyl-2,5-dimethoxyamphetamine], the pKi is 8.27.
On the same count and under the same terms, the same measure for `CCc1cc(OC)c(CC(C)N)cc1OC` (stereo not drawn) [DOET, 4-ethyl-2,5-dimethoxyamphetamine]: 7.92.
`COc1cc(CC(C)N)c(OC)cc1C` (stereo not drawn) [DOM, 4-methyl-2,5-dimethoxyamphetamine] gave a negative-log Ki (pKi) of 7.18.
Take `CCCc1cc(OC)c(CC(C)N)cc1OC.Cl` (stereo not drawn) [DOPR, 4-propyl-2,5-dimethoxyamphetamine hydrochloride]: the negative-log Ki (pKi) was 7.96, the “Selectivity (binding ratios) 5-HT2A/5-HT1A” value came out at 359, the “Selectivity (binding ratios) 5-HT2A/5-HT2B” value amounted to 11 and the “Selectivity (binding ratios) 5-HT2A/5-HT2C” value is reported as 4.

The same test, now with this note: ratio of Ki values.
Regarding `CCCCCc1cc(OC)c(CC(C)N)cc1OC` (stereo not drawn) [DOAM, 4-amyl-2,5-dimethoxyamphetamine], the “Selectivity (binding ratios) 5-HT2A/5-HT1A” value is 2407, the “Selectivity (binding ratios) 5-HT2A/5-HT2B” value is 28 and the “Selectivity (binding ratios) 5-HT2A/5-HT2C” value came out at 21.
As to `CCCCc1cc(OC)c(CC(C)N)cc1OC` (stereo not drawn) [DOBU, 4-butyl-2,5-dimethoxyamphetamine], the “Selectivity (binding ratios) 5-HT2A/5-HT1A” value is listed as 2506, the “Selectivity (binding ratios) 5-HT2A/5-HT2B” value worked out at 30 and the “Selectivity (binding ratios) 5-HT2A/5-HT2C” value stood at 11.

In another test the target is T3, hDAT (Homo sapiens, UniProt Q01959).
T3 construct: expressed in transfected cells; host or cells: HEK 293 cells (membrane preparation)
T3 sequence (Q01959 whole entry): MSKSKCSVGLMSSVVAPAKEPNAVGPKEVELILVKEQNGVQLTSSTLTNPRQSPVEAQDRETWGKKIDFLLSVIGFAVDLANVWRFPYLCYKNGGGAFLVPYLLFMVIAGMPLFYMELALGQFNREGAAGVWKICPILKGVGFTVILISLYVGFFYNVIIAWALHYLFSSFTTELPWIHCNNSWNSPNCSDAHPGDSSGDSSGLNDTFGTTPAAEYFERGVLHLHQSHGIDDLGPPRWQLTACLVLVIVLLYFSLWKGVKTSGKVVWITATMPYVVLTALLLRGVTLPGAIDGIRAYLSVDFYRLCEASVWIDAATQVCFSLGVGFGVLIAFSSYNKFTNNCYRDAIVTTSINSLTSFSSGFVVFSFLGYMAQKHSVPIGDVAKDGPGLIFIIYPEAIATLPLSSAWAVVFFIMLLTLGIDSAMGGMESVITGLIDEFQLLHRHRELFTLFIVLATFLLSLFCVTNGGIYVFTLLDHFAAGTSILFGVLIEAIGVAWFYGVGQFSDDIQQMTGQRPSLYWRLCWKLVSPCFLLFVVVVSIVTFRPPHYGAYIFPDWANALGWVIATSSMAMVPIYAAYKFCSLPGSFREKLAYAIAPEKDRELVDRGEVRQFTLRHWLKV
Kind of test: Radioligand binding, hDAT ([3H]WIN35,428). Particulars: Ki DAT, text value (range DAT and SERT 3.6–4.6). Here is the method: as §1, §2, §3, §4, §5, §6, §7, §8, §9
In turn, `CCCCCc1cc(OC)c(CC(C)N)cc1OC` (stereo not drawn) [DOAM, 4-amyl-2,5-dimethoxyamphetamine] had a pKi of 5.44.

The test is the same for the next values; noted with them: hDAT Ki, mean (95% CI); HEK 293 membranes.
In the case of `COc1ccc(OC)c(CC(C)N)c1.Cl` (stereo not drawn) [2,5-DMA, 2,5-Dimethoxyamphetamine hydrochloride], the negative-log Ki (pKi) is under 5.10.
The same measure, in the same setting: the same measure for `CCCCCc1cc(OC)c(CC(C)N)cc1OC` (stereo not drawn) [DOAM, 4-amyl-2,5-dimethoxyamphetamine]: 5.44; for `CCCCc1cc(OC)c(CC(C)N)cc1OC` (stereo not drawn) [DOBU, 4-butyl-2,5-dimethoxyamphetamine]: under 5.10.
As for `CCc1cc(OC)c(CC(C)N)cc1OC` (stereo not drawn) [DOET, 4-ethyl-2,5-dimethoxyamphetamine], the negative-log Ki (pKi) was under 5.10.
On the same count and under the same terms, the same measure for `COc1cc(CC(C)N)c(OC)cc1C` (stereo not drawn) [DOM, 4-methyl-2,5-dimethoxyamphetamine]: under 5.10.
On the same count and under the same terms, the same measure for `CCCc1cc(OC)c(CC(C)N)cc1OC.Cl` (stereo not drawn) [DOPR, 4-propyl-2,5-dimethoxyamphetamine hydrochloride]: under 5.10.
